The assay has as its system pAkt (Ser473) in MDA-MB-361 cells. Briefly: Phospho AKT induction assay. The following applies: synergistic cell line MDA-MB-361, EC80 dosing, 1 hr to 24 hr. It is filed as cell-based. Here is the method: Phospho Akt (pAkt) levels can be measured by the method described in Example 18. Low CI correlates with the effect of the chemotherapeutic to induce an increase in pAkt. Levels of pAkt (Ser473) were determined using bead kits from Biosource (Carlsbad, Calif.) and the Luminex Bio-Plex system (Bio-Rad, Hercules, Calif.).
In a 6-well tissue culture plate cells were seeded at 5×10^5 cells per well overnight. Cells were treated with an EC80 of the chemotherapeutic agent. Following treatment, cells were washed once with cold PBS and lysed in 1× Cell Extraction Buffer from Biosource (Carlsbad, Calif.) supplemented with protease inhibitors (Roche, Mannheim, Germany), 1 mM PMSF, and Phosphatase Inhibitor Cocktails 1 and 2 from Sigma (St. Louis, Mo.). Determination of protein concentration was performed using the Pierce BCA Protein Assay Kit (Rockford, Ill.). Levels of pAkt (Ser^473) and total Akt were assessed using bead kits from Biosource (Carlsbad, Calif.) and the Luminex Bio-Plex system (Bio-Rad, Hercules, Calif.).

For the compound `Nc1ccn([C@@H]2O[C@H](CO)[C@@H](O)C2(F)F)c(=O)n1` [Gemcitabine, 4-amino-1-[3,3-difluoro-4-hydroxy-5-(hydroxymethyl)tetrahydrofuran-2-yl]-1H-pyrimidin-2-one], the pAkt levels result is “increased pAkt levels”.

For the origin of these results see patent US8247397B2, “Combinations of phosphoinositide 3-kinase inhibitor compounds and chemotherapeutic agents, and methods of use” (Genentech, Inc., priority 2007, dated 2012).
